Active and inactive are the calls of the source.

By AC50 is commonly meant the concentration giving half of the maximal activity seen. Broadly, the EC50 is the concentration needed to bring the measured effect to its halfway point. Higher therefore signals a need for much substance. What is called CC50 is the concentration giving 50% cytotoxicity.

A short description of assay [1]: HepG2 cell cytotoxicity, dose response, cytotoxicity control for Shn3 inhibitor project, CellTiter-Glo, cherry-picked (AID 624134). The assay is classed as functional, cell-based. (In general: ATP-based viability assays read luminescence as a measure of living cells.)
The nature of assay [2]: Shn3 3'UTR reporter inhibitors, dose response, cell-based, Clone20 osteoblasts, firefly luciferase, cherry-picked (AID 624132).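 Also: firefly luciferase luminescence from reporter carrying the Shn3 3'UTR in osteoblasts.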 The class given is functional.
A short description of assay [3]: Luminescence Cell-Based Dose Confirmation HTS to Identify Activators of 5'UTR Stem-Loop Driven Alpha-Synuclein mRNA Translation in H4 Neuroglioblastoma Cells. [Related pubchem assays: 1829 (Project Summary), 1814 (Primary HTS)]. The assay is classed as functional.
Assay [4] addresses T1, Interleukin-8 (Homo sapiens, UniProt P10145).
T1 sequence (P10145 whole entry): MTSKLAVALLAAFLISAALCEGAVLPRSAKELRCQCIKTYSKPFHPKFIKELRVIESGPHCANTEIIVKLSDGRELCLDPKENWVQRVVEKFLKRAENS
The assay is described as follows: Dose Response confirmation of uHTS small molecule hits for cystic fibrosis induced NFkb Inhibitors in a PAF-induced IL8 counterscreen. The assay is classed as functional. The following applies: read-out: IC50_Mean.

The nature of assay [5]: control 3'UTR Renilla luciferase suppression, dose response, counter-screen for Shn3 inhibitor project, cell-based, Clone20-Shn3RL, cherry-picked (AID 624133). The class given is functional. A general note: A counterscreen serves to expose hits that act by an unwanted route or on another target.
For the next assay, the system named is H4. Nature of the assay: Luminescence Cell-Based Dose Response HTS to Identify Activators of 5'UTR Stem-Loop Driven Prion Protein mRNA Translation in H4 Neuroglioblastoma Cells. [Related pubchem assays: 1829 (Project Summary), 1814 (Primary HTS)]. The assay is classed as functional. The note with it: Homo sapiens.
Assay [6] is described as follows: Luminescence Cell-Based Dose Response HTS to Identify Activators of Luciferase Translation or Activity in H4 […] Cells. [Related pubchem assays: 1829 (Project Summary), 1814 (Primary HTS)]. The assay is classed as functional.
Another assay relates to INS1. Nature of the assay: beta cell apoptosis inhibitors, cytokine rescue, dose response, luminescence, retest (AID 449756).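 Also: cell death triggered by IL-1 beta plus TNF-alpha plus IFN-gamma mixture; protective hits raise ATP signal compared with cytokine alone wells.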 The assay is classed as functional, cell-based. The note with it: Rattus norvegicus.
Assay [7] relates to Vero. Nature of the assay: cells. The class given is functional. The following applies: Chlorocebus sabaeus.
The test system of assay [8] is Vero. Nature of the assay: cells. The assay is classed as functional, cell-based. The following applies: Chlorocebus sabaeus.
In assay [9] the target is T1, Interleukin-8. Nature of the assay: Dose Response confirmation of uHTS small molecule hits for cystic fibrosis induced NFkb Inhibitors in a TNFa-induced IL8 counterscreen. The note with it: read-out: IC50_Mean. The class given is functional.

For the compound `C=CCSc1nc2ccccc2n1C(=O)/C=C/c1ccc(OC)c(OC)c1`, the AC50 in assay [1] was 49.4 µM (active); in assay [2], 1.31 µM (active); in [5], 12.5 µM (active); in the assay with INS1, 8.85 µM (active). Besides, the concentration giving a half-maximal response (EC50) (in assay [3]; in the assay with H4; in assay [6]) was > 120 µM (not active) throughout. Further, the IC50 at Interleukin-8 [4] was 685 nM (active); with Vero [8], > 25 µM (active); at Interleukin-8 [9] it was > 79 µM (inactive). Further, the CC50 with Vero [7] is 9.91 µM (active).

Source of the values: ChEMBL document CHEMBL1201862, “PubChem BioAssay data set” (2004).
